Experiments:
[1] = test system: Vasopressin V2; assay: Vasopressin V2 Antagonist Activity in Conscious Hydrated Rats; assay type: in vivo, rat; settings: 10 mg/kg orally, AVP 0.4 μg/kg i.p.
Outline: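 Four-hour urine output, osmolality and electrolytes (Na+, K+, Cl−) recorded in water-loaded rats (30 mL/kg deionized water orally) given AVP i.p. at 0.4 μg/kg. Test compounds were given orally at 0.1–100 mg/kg 1 h before AVP; 2–4 rats per compound.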

[2] = biological target: T1, Human V2 Vasopressin Receptor (Homo sapiens, UniProt P30518); assay: Binding to Membranes of Mouse Fibroblast Cell Line (LV-2) Transfected with the cDNA Expressing the Human V2 Vasopressin Receptor; settings: LV-2 cell membranes, human V2; read-out: V2 IC50 (**)
T1 construct: expressed in transfected cells; host or cells: mouse fibroblast cell line LV-2
Procedure: Binding to Membranes of Mouse Fibroblast Cell Line (LV-2) Transfected with the cDNA Expressing the Human V2 Vasopressin Receptor
Flasks of 175 ml capacity, containing attached cells grown to confluence, are cleared of culture medium by aspiration. The flasks containing the attached cells are rinsed with 2×5 ml of phosphate buffered saline (PBS) and the liquid aspirated off each time. Finally, 5 ml of an enzyme free dissociation Hank's based solution (Specialty Media, Inc., Lafayette, N.J.) is added and the flasks are left undisturbed for 2 min. The content of all flasks is. poured into a centrifuge tube and the cells pelleted at 300× g for 15 min. The Hank's based solution is aspirated off and the cells homogenized with a polytron at setting #6 for 10 sec in 10.0 mM Tris.HCl buffer, pH 7.4 containing 0.25M sucrose and 1.0 mM EDTA. The homogenate is centrifuged at 1500× g for 10 min to remove ghost membranes. The supernatant fluid is centrifuged at 100,000× g for 60 min. to pellet the receptor protein. Upon completion, the pellet is resuspended in a small volume of 50.0 mM Tris. HCl buffer, pH 7.4. The protein content is determined by the Lowry method and the receptor membranes are suspended in 50.0 mM Tris.HCl buffer containing 0.1 mM phenylmethylsulfonylfluoride (PMSF) and 0.2% bovine serum albumin (BSA) to give 2.5 mg receptor protein per ml of suspension.
Arginine^8, vasopressin (S.A. 75.0 Ci/mmole) at 0.8 nM and the reaction initiated by the addition of 80.0 μl of tissue membranes (200.0 μg tissue protein). The plates are left undisturbed on the bench top for 120 min to reach equilibrium. Non specific binding is assessed in the presence of 1.0 μM of unlabeled ligand, added in 20 μl volume. For test compounds, these are solubilized in 50% dimethylsulfoxide (DMSO) and added in 20.0 μl volume to a final incubation volume of 200 μl. Upon completion of binding, the content of each well is filtered off, using a Brandel® cell Harvester (Gaithersburg, Md.). The radioactivity trapped on the filter disk by the ligand-receptor complex is assessed by liquid scintillation counting in a Packard LS Counter, with an efficiency of 65% for tritium. The data are analyzed for IC50 values by the LUNDON-2 program for competition (LUNDON SOFTWARE, Ohio).

[3] = biological target: T2, oxytocin receptors (Rattus norvegicus, UniProt P70536); assay: Oxytocin Receptor Binding; settings: for IC50: 1.0 nM [3H]oxytocin
T2 construct: The uteri are dissected out, cleaned of fat and connective tissues; from tissue; host or cells: uterus of DES-treated female Sprague-Dawley rats
T2 sequence (P70536 1-388): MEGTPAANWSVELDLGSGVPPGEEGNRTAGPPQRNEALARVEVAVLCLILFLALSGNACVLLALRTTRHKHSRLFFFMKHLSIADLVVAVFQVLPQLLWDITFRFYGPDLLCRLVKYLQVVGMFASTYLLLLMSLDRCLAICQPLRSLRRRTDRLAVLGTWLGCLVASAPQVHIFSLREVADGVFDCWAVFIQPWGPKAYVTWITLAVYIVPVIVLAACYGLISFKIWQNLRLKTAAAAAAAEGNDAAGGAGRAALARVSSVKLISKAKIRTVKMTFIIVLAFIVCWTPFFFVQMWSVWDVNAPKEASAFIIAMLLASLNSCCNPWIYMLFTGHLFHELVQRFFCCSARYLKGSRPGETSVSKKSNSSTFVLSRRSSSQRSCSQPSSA
Outline: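 IC50 is the concentration displacing 50% of 1.0 nM [3H]OT, incubated 60 min at 22 °C in pH 7.4 Tris/MgCl2 buffer plus protease inhibitors, then filtered. Receptor source: uterine membranes from rats given 0.3 mg/kg DES i.m. 18 h earlier. 1.0 uM cold OT defined non-specific binding.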

[4] = biological target: T3, V1 Receptor Subtype in Human Platelet (Homo sapiens, UniProt P37288); assay: Binding to Vasopressin V1 receptor subtype in Human Platelet Membranes; settings: human platelet membranes
T3 construct: tissue Hudson Valley Blood Services, Westchester Medical Center, Valhalla, N.Y; host or cells: human platelets (frozen platelet rich plasma)
Procedure: Radioligand Binding Experiments with Human Platelet Membranes (a) Platelet Membrane Preparation: Frozen platelet rich plasma (PRP), (Platelet Source: Hudson Valley Blood Services, Westchester Medical Center, Valhalla, N.Y.) are thawed to room temperature. The tubes containing the PRP are centrifuged at 16,000×g for 10 min. at 4° C. and the supernatant fluid discarded. […] The suspension is recentrifuged at 16,000× g for 10 min. This washing step is repeated one more time. The wash discarded and the lysed pellets homogenized in low ionic strength buffer of Tris.HCl, 5.0 mM, pH 7.5 containing 5.0 mM EDTA. The homogenate is centrifuged at 39,000× g for 10 min. The resulting pellet is resuspended in Tris. […] The final pellet is resuspended in 50.0 mM Tris. HCl buffer pH 7.4 containing 120 mM NaCl and 5.0 mM KCl to give 1.0-2.0 mg protein per ml of suspension. […] Platelet Membranes […] Then add 20 μl of [^3 H]Ligand (Manning or […] Vasopressin), to give final concentrations ranging from 0.01 to 10.0 nM. Initiate the binding by adding 80.0 μl of platelet suspension (approx. 100 μg protein). Mix all reagents by pipetting the mixture up and down a few times. Non specific binding is measured in the presence of 1.0 μM of unlabeled ligand (Manning or […] Vasopressin). Let the mixture stand undisturbed at room temperature for ninety (90) min. Upon this time, rapidly filter off the incubate under vacuum suction over GF/B filters, using a Brandel Harvester. Determine the radioactivity caught on the filter disks by the addition of liquid scintillant and counting in a liquid scintillator.

T1 sequence (P30518 whole entry): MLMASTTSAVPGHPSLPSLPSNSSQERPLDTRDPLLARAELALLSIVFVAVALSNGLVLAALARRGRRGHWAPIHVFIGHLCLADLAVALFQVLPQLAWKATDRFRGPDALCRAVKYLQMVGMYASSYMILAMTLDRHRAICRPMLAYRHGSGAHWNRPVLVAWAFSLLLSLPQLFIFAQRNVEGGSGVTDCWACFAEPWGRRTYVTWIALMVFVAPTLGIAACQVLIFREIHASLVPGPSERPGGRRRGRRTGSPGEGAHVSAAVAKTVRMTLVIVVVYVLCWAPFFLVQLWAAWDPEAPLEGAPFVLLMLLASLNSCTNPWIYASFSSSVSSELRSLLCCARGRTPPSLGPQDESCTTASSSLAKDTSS
T3 sequence (P37288 whole entry): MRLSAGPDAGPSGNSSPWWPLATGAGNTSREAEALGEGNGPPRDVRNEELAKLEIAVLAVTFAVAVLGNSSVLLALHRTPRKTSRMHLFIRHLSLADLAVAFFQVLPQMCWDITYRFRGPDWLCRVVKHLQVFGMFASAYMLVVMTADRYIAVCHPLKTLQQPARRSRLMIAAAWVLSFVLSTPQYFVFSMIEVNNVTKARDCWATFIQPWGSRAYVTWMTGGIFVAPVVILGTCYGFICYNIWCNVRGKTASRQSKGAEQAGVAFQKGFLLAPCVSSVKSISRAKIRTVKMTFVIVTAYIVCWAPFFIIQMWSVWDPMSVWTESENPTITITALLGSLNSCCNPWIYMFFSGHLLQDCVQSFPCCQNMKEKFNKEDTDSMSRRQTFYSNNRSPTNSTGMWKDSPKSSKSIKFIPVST

Row | SMILES | IC50 [2] [nM] | IC50 [3] [nM] | inhibition at 10 µM ([3]; [3H]oxytocin) [%] | IC50 [4] [nM] | inhibition at 5 µM ([3]; dose 5 μM, [3H]oxytocin) [%] | Osmolality [1] [mOsm/kg] | Urine Volume [1] [ml/4 hrs]
1 | O=C(Nc1ccc(C(=O)N2Cc3cccn3Cc3ccccc32)c(Cl)c1)c1ccccc1Cl [Example 526, N-[4-(5H-pyrrolo[2,1-c][1,4]benzodiazepin-10(11H)-ylcarbonyl]-3-chlorophenyl]-2-chlorobenzamide] | 3.3 | 470 | 97 | 50 | – | 455 | 17.8
2 | Cc1c(F)cccc1C(=O)Nc1ccc(C(=O)N2Cc3cccn3Cc3ccccc32)cc1Cl [Example 546, N-[4-(5H-pyrrolo[2,1-c][1,4]benzodiazepin-10(11H)-ylcarbonyl)-2-chlorophenyl]-3-fluoro-2-methylbenzamide] | 73 | 990 | 91 | 66 | – | – | –
3 | O=C(Nc1ccc(C(=O)N2Cc3ccc(Cl)n3Cc3ccccc32)cc1)c1ccc(Cl)cc1Cl [Example 54, N-[4-(3-Chloro-5H-pyrrolo[2,1-c]-[1,4]benzodiazepin-10(11H)yl-carbonyl)phenyl]-2,4-dichloro-benzamide] | 7 | 160 | 94 | 310 | – | 1275 | 5
4 | Cc1ccccc1C(=O)Nc1ccc(C(=O)N2Cc3ccnn3Cc3ccccc32)c(Cl)c1 [Example 519, N-[4-(4H-Pyrazolo[5,1-c][1,4]benzodiazepin-5(10H)-ylcarbonyl)-3-chlorophenyl]-2-methylbenzamide] | 3.2 | 480 | 97 | 120 | – | 399 | 19.9
5 | O=C(Nc1ccc(C(=O)N2CCc3cccn3-c3ccccc32)c(Cl)c1)c1ccc(Cl)cc1Cl [Example 609, N-[4-[(6,7-Dihydro-5H-pyrrolo[1,2-a]-[1,5]benzodiazepin-5-yl)carbonyl]-3-chlorophenyl]-2,4-dichlorobenzamide] | 21 | 2700 | 66 | 2400 | – | – | –
6 | O=C(Nc1ccc(C(=O)N2Cc3cccn3Cc3ccccc32)c(Cl)c1)c1c(Cl)cccc1Cl [Example 529, N-(4-(5H-pyrrolo[2,1-c][1,4]benzodiazepin-10(11H-)-ylcarbonyl]-3-chlorophenyl]-2,6-dichlorobenzamide] | 2 | 450 | 92 | 990 | – | 569 | 10.5

The next lines start with results.

Row | IC50 [2] [nM] | IC50 [3] [nM] | inhibition at 10 µM ([3]; [3H]oxytocin) [%] | IC50 [4] [nM] | inhibition at 5 µM ([3]; dose 5 μM, [3H]oxytocin) [%] | SMILES | Osmolality [1] [mOsm/kg] | Urine Volume [1] [ml/4 hrs]
7 | 4.4 | 2200 | 79 | 850 | – | O=C(Nc1ccc(C(=O)N2Cc3ccnn3Cc3ccccc32)c(Cl)c1)c1ccc(Cl)cc1Cl [Example 520, N-[4-(4H-Pyrazolo[5,1-c][1,4]benzodiazepin-5(10H)-ylcarbonyl)-3-chlorophenyl]-2,4-dichlorobenzamide] | 394 | 18.5
8 | 1 | 900 | 90 | 52 | – | O=C(Nc1ccc(C(=O)N2Cc3cccn3Cc3ccccc32)c(Cl)c1)c1cccc(F)c1 [Example 538, N-[4-(5H-pyrrolo[2,1-c][1,4]benzodiazepin-10(11H)-ylcarbonyl)-3-chlorophenyl]-3-fluorobenzamide] | – | –
9 | 4 | 260 | – | 16 | 97 | Cc1ccc(F)cc1C(=O)Nc1ccc(C(=O)N2Cc3cccn3Cc3ccccc32)cc1Cl [Example 547, N-[4-(5H-pyrrolo[2,1-c][1,4]benzodiazepin-10(11H)-ylcarbonyl)-2-chlorophenyl]-5-fluoro-2-methylbenzamide] | – | –
10 | 1.2 | 1800 | 84 | 170 | – | CSc1ccccc1C(=O)Nc1ccc(C(=O)N2Cc3cccn3Cc3ccccc32)c(Cl)c1 [Example 524, N-[4-(5H-pyrrolo[2,1-c][1,4]benzodiazepin-10(11H)-ylcarbonyl)-3-chlorophenyl]-2-(thiomethylbenzamide)] | 528 | 10
11 | 29 | – | – | 170 | – | Cc1ccc(F)cc1C(=O)Nc1ccc(C(=O)N2Cc3ccc(CN(C)C)n3Cc3ccccc32)c(Cl)c1 [Example 668, N-[4-[[3-[(dimethylamino)methyl]-5H-pyrrolo[2,1-c][1,4]benzodiazepin-10(11H)-yl]carbonyl]-3-chlorophenyl]-5-fluoro-2-methylbenzamide] | 378 | 20.7
